Measurements as given in US20140045746A1 (Merck Sharp & Dohme Corp., priority 2012, published 2014).
Converted amounts (≈) assume the structure as drawn. Read-outs that look alike come from different tables or passages of the source.

Experiments:
[1] = molecular target: KV11.1 ion channel (hERG) (Homo sapiens, UniProt Q12809); experiment: Binding to ion channel Kv11.1 (hERG)
Solubility in PBS pH 7 = type: physicochemical; conditions: aqueous buffer; pH 7, PBS
hGPR40 = hGPR40 (Homo sapiens, UniProt O14842); experiment: GPR40 Inositol Phosphate Turnover (IP1) Assay; type: cell-based; parameters: expressed in transfected cells; host or cells: HEK cells stably expressing the aequorin reporter
Method: A human GPR40 stable cell-line was generated in HEK cells stably expressing the aequorin expressing reporter.
The assay is performed in 96-well format. HEK cells stably expressing human GPR^40 are plated to be 60-80% confluent within 72 h. After 72 h, the plates are aspirated and the cells washed with inositol-free DMEM (ICN). The wash media is replaced with 150 μL of 3H-inositol labeling media (inositol-free media containing 0.4% human albumin or 0.4% mouse albumin, 1× pen/strep antibiotics, glutamine, 25 mM HEPES to which is added 3H-myo-inositol NEN #NET114A 1mCi/mL, 25 Ci/mmol diluted 1:150 in loading media with a final specific radioactivity of 1 μCi/150 μL). Alternatively, the human and mouse albumin can be added after the overnight labeling step before the addition of LiCl.
The assay is typically run the next day after 18 h labeling. On the day of the assay, 5 μL, of 300 mM LiCl is added to all wells and incubated at 37 degrees for 20 min. 0.75 μL of 200× compounds are added and incubated with the cells for 60 min at 37 degrees. The media is then aspirated off and the assay terminated with the addition of 60 nI, 10 mM formic acid. The cells are lysed for 60 min at room temperature. 15-30 nI, of lysate is mixed with 70 mL/1 mg YSi SPA beads (Amersham) in clear bottom Isoplates. The plates are shaken for 2 h at room temperature. Beads are allowed to settle and the plates are counted in the Wallac Microbeta.

[2] = +0% human serum (Table A), read-out: Human GPR40 IP1, EC50, +0% human serum
[3] = +100% human serum (Table A), read-out: Human GPR40 IP1, EC50, +100% human serum

KV11.1 ion channel (hERG), sequence (Q12809 whole entry): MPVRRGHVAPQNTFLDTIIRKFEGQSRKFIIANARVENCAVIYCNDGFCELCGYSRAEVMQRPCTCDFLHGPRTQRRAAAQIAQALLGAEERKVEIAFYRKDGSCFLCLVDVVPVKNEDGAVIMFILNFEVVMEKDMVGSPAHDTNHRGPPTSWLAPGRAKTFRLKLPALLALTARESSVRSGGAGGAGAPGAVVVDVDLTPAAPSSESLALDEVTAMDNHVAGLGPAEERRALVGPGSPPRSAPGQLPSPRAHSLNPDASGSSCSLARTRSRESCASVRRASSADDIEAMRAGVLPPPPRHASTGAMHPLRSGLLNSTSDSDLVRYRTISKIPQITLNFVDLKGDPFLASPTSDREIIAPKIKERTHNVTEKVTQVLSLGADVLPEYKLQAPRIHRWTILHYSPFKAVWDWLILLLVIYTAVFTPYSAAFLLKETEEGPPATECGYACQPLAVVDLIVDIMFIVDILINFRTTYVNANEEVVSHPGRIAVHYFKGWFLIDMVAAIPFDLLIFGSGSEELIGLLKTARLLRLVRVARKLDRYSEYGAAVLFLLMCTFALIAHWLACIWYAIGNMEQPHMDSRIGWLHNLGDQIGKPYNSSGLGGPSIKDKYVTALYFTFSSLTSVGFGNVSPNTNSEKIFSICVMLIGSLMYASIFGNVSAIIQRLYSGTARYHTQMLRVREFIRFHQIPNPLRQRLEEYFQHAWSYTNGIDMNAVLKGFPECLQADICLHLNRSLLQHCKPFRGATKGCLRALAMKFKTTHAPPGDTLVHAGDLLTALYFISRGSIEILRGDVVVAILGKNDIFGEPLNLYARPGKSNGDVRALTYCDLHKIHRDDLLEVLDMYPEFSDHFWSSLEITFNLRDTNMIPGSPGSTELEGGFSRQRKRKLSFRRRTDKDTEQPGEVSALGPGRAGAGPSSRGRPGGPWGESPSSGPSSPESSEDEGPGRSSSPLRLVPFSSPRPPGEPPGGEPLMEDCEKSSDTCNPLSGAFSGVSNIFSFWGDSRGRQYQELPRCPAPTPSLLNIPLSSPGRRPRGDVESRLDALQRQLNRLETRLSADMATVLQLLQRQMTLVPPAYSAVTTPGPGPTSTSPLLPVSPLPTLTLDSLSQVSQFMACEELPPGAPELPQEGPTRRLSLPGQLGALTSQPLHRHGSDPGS
hGPR40, sequence (O14842 whole entry): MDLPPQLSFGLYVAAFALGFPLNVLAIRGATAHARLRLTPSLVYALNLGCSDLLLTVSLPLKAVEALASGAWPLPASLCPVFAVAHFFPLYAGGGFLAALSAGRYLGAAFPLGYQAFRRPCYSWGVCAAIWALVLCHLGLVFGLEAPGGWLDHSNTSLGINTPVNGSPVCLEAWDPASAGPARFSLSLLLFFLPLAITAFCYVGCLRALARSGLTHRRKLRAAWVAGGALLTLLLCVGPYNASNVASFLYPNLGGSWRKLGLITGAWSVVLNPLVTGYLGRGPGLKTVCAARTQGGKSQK

## Cc1cc(CCCC(C)(C)O)cc(C)c1-c1ccc(F)c(COc2cc3c(cn2)[C@H]2[C@@H](C3)[C@@H]2C(=O)O)c1 (single isomer, unassigned) [Compound A-4]
[1]
  Ki: 7.5 µM
Solubility in PBS pH 7
  solubility: 143 µM (≈ 72 µg/mL)
hGPR40; [2]
  EC50: 0.005 µM
hGPR40; [3]
  EC50: 0.124 µM

## Cc1cccc(C)c1-c1cccc(COc2cc3c(cn2)[C@H]2[C@@H](C3)[C@@H]2C(=O)O)c1C [Compound A-1]
[1]
  Ki: 40 µM
Solubility in PBS pH 7
  solubility: 73 µM (≈ 29.2 µg/mL)
hGPR40; [2]
  EC50: 0.006 µM
hGPR40; [3]
  EC50: 0.081 µM

## Cc1cccc(C)c1-c1cccc(COc2ccc3c(c2)C[C@H]2[C@H](C(=O)O)[C@@H]32)c1C [Compound B-1, reference compound]
[1]
  Ki: 6 µM
Solubility in PBS pH 7
  solubility: 56 µM (≈ 22.3 µg/mL)
hGPR40; [2]
  EC50: 0.069 µM
hGPR40; [3]
  EC50: 0.322 µM

## Cc1cc(OCC2(C)COC2)cc(C)c1-c1cccc(COc2ccc3c(c2)C[C@H]2[C@H](C(=O)O)[C@@H]32)c1 [Compound B-2, reference compound]
[1]
  Ki: 8.6 µM
Solubility in PBS pH 7
  solubility: 21 µM (≈ 10.2 µg/mL)
hGPR40; [2]
  EC50: 0.07 µM
hGPR40; [3]
  EC50: 0.816 µM

## Cc1cc(OCC2(C)COC2)cc(C)c1-c1ccc(F)c(COc2ccc3c(c2)C[C@H]2[C@H](C(=O)O)[C@@H]32)c1 [Compound B-3, reference compound]
[1]
  Ki: 7.8 µM
Solubility in PBS pH 7
  solubility: 49 µM (≈ 24.6 µg/mL)
hGPR40; [2]
  EC50: 0.031 µM
hGPR40; [3]
  EC50: 0.286 µM
